Consider four molecules from patent publication US5886014A, “Benzimidazole derivatives, their preparation and their therapeutic use” (Sankyo Company, Limited, priority 1995, dated 1999).

Assay [1] relates to blood glucose level. As to the kind of experiment: Hypoglycemic activity in hyperglycemic KK mice (blood glucose level). It is filed as in vivo, male mice of the KK strain. To be noted: 1 mg/kg oral, 18 hours, vs solvent-only group. As for the experimental part:
The test animals used were hyperglycemic male mice of the KK strain, each having a body weight of at least 40 g. The compounds under test were mixed with a 1:1 by volume mixture of polyethylene glycol 400 and water. Each animal was orally administered a test compound in the amount shown in the following Table 6 and then allowed to feed freely for 18 hours. At the end of this time, blood was collected from the tail veins without anesthesia. The blood glucose level (BGL) was determined by means of a glucose analyzer (GL-101, manufactured by Mitsubishi Kasei Co. or a Glucoroder-F manufactured by Shino Test Co.). The hypoglycemic effect was calculated by the following equation: Hypoglycemic effect (%)=[(BGLs -BGLt)/BGLs ]×100 where: BGLs is the blood glucose level in the group administered a solvent only, but no active compound; and BGLt is the blood glucose level in the group administered a test compound. The results are shown in the following Table 6, in which each compound of the present invention is identified by the number of one of the following Examples in which its preparation is illustrated.

The target in assay [2] is T1, Bovine lens aldose reductase (Bos taurus, UniProt P16116).
T1 construct: Bovine lens aldose reductase was separated and partially purified; from tissue; host or cells: bovine lens
As to the kind of experiment: Inhibition of Aldose reductase. It is filed as biochemical. To be noted: for inhibition at 5 µg/mL: read-out: Inhibition (%) at 5 μg/ml. On the procedure: Bovine lens aldose reductase was separated and partially purified by the method of S. Hyman and J. H. Kinoshita [J. Biol. Chem. 240, 877 (1965)] and K. Inagaki, I. Miwa and J. Okuda [Arch. Biochem. Biophys., 216, 337 (1982)], and its activity was determined photometrically by the method of Varma et al. [Biochem. Pharmac., 25, 2505 (1976)]. Inhibition of enzyme activity was measured for the compounds of the present invention at a concentration of 5 μg/ml, and the measured values were used to calculate the IC50 values.

In the case of `Cn1c(COc2ccc(CC3SC(=O)NC3=O)cc2)nc2ccccc21` (centres unmarked) [Example 1, 5-[4-(1-Methylbenzimidazol-2-ylmethoxy)benzyl]thiazolidine-2,4-dione], the “Hypoglycemic effect (%)” value in assay [1] stood at 36.2%. In assay [2], 2100 nM corresponded to half-maximal inhibition (IC50) and the inhibition at 5 µg/mL was 80.3%.
Take `COc1ccc2nc(COc3ccc(CC4SC(=O)NC4=O)cc3)n(C)c2c1` (centres unmarked) [Example 2, 5-[4-(6-Methoxy-1-methylbenzimidazol-2-ylmethoxy)benzyl]thiazolidine-2,4-dione]: in assay [1], the “Hypoglycemic effect (%)” value stood at 27.2%.
Turning to `Cc1c(O)c(C)c2nc(COc3ccc(CC4SC(=O)NC4=O)cc3)n(C)c2c1C` (centres unmarked) [Example 3, 5-[4-(5-Hydroxy-1,4,6,7-tetramethylbenzimidazol-2-ylmethoxy)benzyl]thiazolidine-2,4-dione], the “Hypoglycemic effect (%)” value in assay [1] is listed as 11.2%. Moreover, in assay [2], the midpoint of inhibition, the IC50, lay at 3290 nM and the inhibition at 5 µg/mL is 79.6%.
On to `Cc1c(O)c(C)c2nc(COc3ccc(CC4SC(=O)NC4=O)cc3)n(C)c2c1C.Cl` (centres unmarked) [Example 4, 5-[4-(5-Hydroxy-1,4,6,7-tetramethylbenzimidazol-2-ylmethoxy)benzyl]thiazolidine-2,4-dione hydrochloride], for which, in assay [1], the “Hypoglycemic effect (%)” value came out at 19.3%.

The IC50 is the concentration that gives 50% inhibition. A low value points to inhibition by little substance.
